This is an account of results in ChEMBL document CHEMBL1165932, “Inhibition of Mycobacterium tuberculosis tyrosine phosphatase PtpA by synthetic chalcones: kinetics, molecular modeling, toxicity and effect on growth” (Bioorg Med Chem, 2010).

Test [1] relates to Mycobacterium tuberculosis. In words: Antibacterial activity against Mycobacterium bovis BCG infected in human THP1 cells assessed as viral infection at 10 uM after 24 hrs relative to control. In kind it is functional, variant bovis BCG, THP-1.
Test [2] relates to Mycobacterium tuberculosis. Description: Antibacterial activity against Mycobacterium bovis BCG infected in human THP1 cells assessed as viral infection at 20 uM after 48 hrs relative to control. Type of test: functional, variant bovis BCG, THP-1.

As for `COc1ccc(C(=O)/C=C/c2ccc3ccccc3c2)cc1OC`, the Activity in test [1] was 63.8%; in test [2], 32.9%.
In the same order, the values of `COc1ccc(OC)c(C(=O)/C=C/c2cccc3ccccc23)c1` are 108.6% and 46.3%.
Turning to `COc1ccc(OC)c(C(=O)/C=C/c2ccc3ccccc3c2)c1`, the values for the Activity in test [1] and in test [2] were 117.7% and 234.9%, respectively.
On the same counts, the results for `COc1cc(C(=O)/C=C/c2ccc3ccccc3c2)ccc1O` are 72.9% and 8.5%.
On the same counts, the results for `O=C(/C=C/c1cccc2ccccc12)c1ccccc1O` are 180.8% and 71.3%.
